Assay [1] addresses recombinant human cannabinoid 1 receptor (CB1) (Homo sapiens, UniProt P21554). Put plainly: In vitro determination of antagonism to CB1-receptor ([35S]GTPγS binding assay, CHO cell membranes). The format is biochemical. The conditions noted are these: compound at 1 μM against agonist WIN 55,212-2 (3 nM to 3 μM); effect of Rimonabant (1 μM) defined as 100%. The procedure, abridged: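 Membranes from CHO cells stably expressing human CB1 (15 μg protein/well) incubated 60 min at 30° C., pH 7.4, with 5 μM GDP, saponin and 0.5 nM [35S]GTPγS, compound at 1 μM final, with or without WIN 55,212-2 (3 nM–3 μM). Bound radioactivity via filtration; basal subtracted, antagonism scaled to WIN 55,212-2 ± Rimonabant (1 μM) window as 100%.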

For assay [2], the target named is T1, CB1 receptor (UniProt P20272).
T1 construct: other: compound at 10^−7 M; radioligand [3H]-CP55940; other: compound at 10^−8 M
Put plainly: In-vitro determination of affinity to CB1/CB2-receptors (radioligand [3H]-CP55940 binding). A digest of the protocol: (§1)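 Transfected human CB1/CB2 receptors were tested with [3H]-CP55940. In the modified Govaerts method, rat cerebellum membranes (100 µg protein) were incubated with 1 nM [3H]-CP55940 and compound for 1 h at 30 °C in Tris-HCl/MgCl2/EDTA/0.5% BSA, pH 7.4, with 10 µM HU-210 defining non-specific binding. Filter-bound radioactivity was counted in triplicate and analysed by non-linear regression.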

Assay [3] has as its target T2, CB1 receptor.
T2 construct: IC50 [nM]; radioligand [3H]-CP55940
The assay is described as above. The conditions noted are these: binding data per pharmacological methods part I, table does not say whether human transfected receptor or rat cerebellum. A digest of the protocol:
as §1

Each structure is given as a SMILES string. pIC50: −log10 of the molar value.

recombinant human cannabinoid 1 receptor (CB1), sequence (P21554 whole entry): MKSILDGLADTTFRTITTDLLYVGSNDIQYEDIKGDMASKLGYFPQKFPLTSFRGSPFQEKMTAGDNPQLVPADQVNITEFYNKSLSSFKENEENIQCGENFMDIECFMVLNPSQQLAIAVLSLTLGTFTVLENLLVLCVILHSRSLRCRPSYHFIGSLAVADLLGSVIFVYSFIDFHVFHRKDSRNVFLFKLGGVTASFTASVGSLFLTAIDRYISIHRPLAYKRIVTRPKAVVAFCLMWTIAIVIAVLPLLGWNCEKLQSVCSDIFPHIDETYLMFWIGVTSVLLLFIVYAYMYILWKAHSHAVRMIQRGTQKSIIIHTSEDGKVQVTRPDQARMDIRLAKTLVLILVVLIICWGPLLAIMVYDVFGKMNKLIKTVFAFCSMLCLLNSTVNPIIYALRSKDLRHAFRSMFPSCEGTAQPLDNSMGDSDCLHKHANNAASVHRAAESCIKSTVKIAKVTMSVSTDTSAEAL

On to `CC1Cc2ccccc2N1NC(=O)C1=NN(c2ccc(Cl)cc2Cl)C(c2ccc(Cl)cc2)C1` (centres unmarked) [Example 27, 5-(4-Chloro-phenyl)-1-(2,4-dichloro-phenyl)-4,5-dihydro-1H-pyrazole-3-carboxylic acid (2-methyl-2,3-dihydro-indol-1-yl)-amide], for which, in assay [1], the “Antagonism [%]” value was found to be 31%. Also, the “Inhibition [%], 10^−7 M” value at CB1 receptor [2] (compound at 10^−7 M) is 50.7%. Besides, the “Inhibition [%], 10^−8 M” value at CB1 receptor [2] (compound at 10^−8 M) was found to be 32.9%. Also, the pIC50 (commonly the IC50 on a negative log10 scale, so that one unit is a factor of ten) on CB1 receptor [3] is 6.93.
With `COc1ccc(C2CC(C(=O)NN3CCCCC3)=NN2c2ccc(Cl)cc2Cl)cc1` (centres unmarked) [Example 106A, 1-(2,4-Dichloro-phenyl)-5-(4-methoxy-phenyl)-4,5-dihydro-1H-pyrazole-3-carboxylic acid piperidin-1-ylamide], the “Antagonism [%]” value in assay [1] is given as 112%. The same compound showed a pIC50 on CB1 receptor [3] of 7.70.
Turning to `CC1CCCC(C)N1NC(=O)C1=NN(c2ccc(Cl)cc2Cl)C(c2ccc(Cl)cc2)C1.Cl` (centres unmarked) [Example 192, 5-(4-Chloro-phenyl)-1-(2,4-dichloro-phenyl)-4,5-dihydro-1H-pyrazole-3-carboxylic acid (2,6-dimethyl-piperidin-1-yl)-amide hydrochloride], the “Antagonism [%]” value in assay [1] was found to be 63%. In addition, the pIC50 on CB1 receptor [3] (hydrochloride) was 6.30.

The values above are taken from patent publication US8207156B2, “Substituted pyrazoline compounds, their preparation and use as medicaments” (Laboratorios Del Dr. Esteve, S.A., priority 2005, dated 2012).
